Results taken from US12708620B2, “Prodrugs and medical uses thereof” (priority 2018, dated 2026).
Like-named read-outs stand apart in the source and are kept apart here.

What was measured:
Experiment in all cases: resazurin-based potency assay, normoxia vs anoxia
Format in all cases: cell-based, human
Conditions in all cases: for IC50: Homo sapiens, 4 h exposure then 96 h
BT-474 = system: BT-474
Description: (§1) The IC50 values were obtained using the resazurin-based potency assay under anoxic (<0.01% O2) and/or normoxic conditions (21% O2). The hypoxia cytotoxicity ratio (HCR) is calculated as the ratio of IC50 value […] (HCR=IC50 normoxia/IC50 anoxia).
(§2) For anoxic condition, the complete medium for each cell line (25 ml in a T25 or 80 ml in a T80) was equilibrated in the anoxic chamber 48 h before use to allow an as large as possible interchange between media and atmosphere, agitating the flask once a day and just before use. The 96-well plates for cell seeding and the 96-well plates for preparation of a mother plate containing the compound to be tested (e.g. Cpd.11 Ms) at appropriate concentrations as well as disposable reagent reservoirs and pipet tips that are required for cell seeding under anoxic conditions were placed in anoxia at least 72 h before use. The mother plate for treatment of the cells under anoxia was prepared with anoxic medium and in anoxia pre-incubated plastics, the mother plate for treatment of the cells in normoxia was prepared with normoxic medium in a standard cell culture hood.
(§3) Cell seeding was performed starting from a cell suspension (70% confluent flasks of cells). Appropriate cell numbers/volumes were used at the pre-determined cell density (typically 100 μl/well) as determined by performing a growth curve experiment were calculated. For anoxic conditions, the appropriate number of cells was transferred to the anoxic chamber and diluted to the appropriate cell concentration in anoxic complete medium. The cells were allowed to adhere for 2 hours in the anoxic chamber at 37° C. In normoxic conditions, usual cell seeding and complete medium protocols were used (in a volume of 100 μl/well in 96-well plates). The cells were allowed to adhere for 2 hours at 37° C. in a regular cell culture CO2 incubator. In both conditions, the remaining empty wells in 96-well plates were filled with 200 μl anoxic or normoxic medium to prevent evaporation.
(§4) Fresh Cpd.11 Ms stock solution was thawed just before the experiment and shielded from the light. A 96-well microtiter plate was filled with 176.4 μl of complete normoxic (RT) or anoxic medium in the first column and 120 μl of complete normoxic or anoxic medium with 2% DMSO for the other columns of wells. 3.6 μl per well of the compound stock solution (Cpd.11, Cpd.11 Ms, Cpd.11c, or Cpd.11d; 150 mM) was added to the first column. The solution of the first column was pipetted up and down and 60 μl was transferred to the second column to perform 1/3 serial dilutions pipetting up and down 3 times between each transfer. This was repeated until the 11th column. No Cpd.11 Ms was added to the 12th column. The plate was prepared no longer than 30 minutes before use and protected from direct light exposure. Two hours after seeding the cells, 100 μl of the mother plate was added to each well and plates remained for 4 h in the anoxic chamber or in cell culture incubator at 37° C. After 4 h, the plate in the anoxic chamber was transferred to normoxia. Visual inspection of all plates (few random wells per plate) under microscope was performed and medium was removed from all plates by aspiration. Cells were washed once with 200 μl PBS (RT) and 200 μl of fresh normoxic complete medium (RT) was added to each well (including all wells without cells). All plates were incubated for 96 hours in normoxia at 37° C. in a standard cell culture incubator.
(§5) For the cell viability assay, the resazurin final working solution was prepared freshly by diluting the resazurin stock solution (0.1 mg/ml) 1/10 in complete medium (RT) of the respective cell lines to obtain a final concentration of 0.01 mg/ml resazurin. After 96 hours incubation in normoxia, a visual inspection of all the plates (few random wells per plate) was performed under the microscope and the medium in each well was removed by aspiration. […]

BxPC-3 = system: BxPC-3
Description: as §1, §2, §3, §4, §5

DMS114 = system: DMS114
Description: as §1, §2, §3, §4, §5

HCC1937 = system: HCC1937
Description: as §1, §2, §3, §4, §5

MDA-MB-231 = system: MDA-MB-231
Description: as §1, §2, §3, §4, §5

NCI-H1650 = system: NCI-H1650
Description: as §1, §2, §3, §4, §5

NCI-H1975 = system: NCI-H1975
Description: as §1, §2, §3, §4, §5

PANC-1 = system: PANC-1
Description: as §1, §2, §3, §4, §5

[1] = anoxia (<0.01% O2), read-out: IC50 Average for Cpd.11Ms ANX (SD)
[2] = normoxia (21% O2), read-out: IC50 Average for Cpd.11Ms NRX (SD)

SMILES: CCN1CCN(C(=O)c2cc(N(CCBr)CCOS(C)(=O)=O)c(S(C)(=O)=O)cc2[N+](=O)[O-])CC1.CS(=O)(=O)O [Cpd.11 Ms, 4-(5-((2-bromoethyl) (2-((methylsulfonyl)oxy)ethyl)amino)-4-(methylsulfonyl)-2-nitrobenzoyl)-1-ethylpiperazin-1-ium methanesulfonate]
- Average of HCR (SD) (BT-474; HCR=IC50 normoxia/IC50 anoxia): 102.6 (15.2)
- IC50 (BT-474; [1]): 14.8 µM
- IC50 (BT-474; [2]): > 1500 µM
- Average of HCR (SD) (BxPC-3; HCR=IC50 normoxia/IC50 anoxia): 22.7 (4.2)
- IC50 (BxPC-3; [1]): 68.2 µM
- IC50 (BxPC-3; [2]): > 1500 µM
- Average of HCR (SD) (DMS114; HCR=IC50 normoxia/IC50 anoxia): 96.3 (26.2)
- IC50 (DMS114; DMS-114, anoxia (<0.01% O2), read-out: IC50 Average for Cpd.11Ms ANX (SD)): 6.2 µM
- IC50 (DMS114; DMS-114, normoxia (21% O2), read-out: IC50 Average for Cpd.11Ms NRX (SD)): 564 µM
- Average of HCR (SD) (HCC1937; HCR=IC50 normoxia/IC50 anoxia): 28.8 (8.3)
- IC50 (HCC1937; [1]): 53.1 µM
- IC50 (HCC1937; [2]): 1450 µM
- Average of HCR (SD) (MDA-MB-231; HCR=IC50 normoxia/IC50 anoxia): 10.4 (3.0)
- IC50 (MDA-MB-231; [1]): 121 µM
- IC50 (MDA-MB-231; [2]): 1250 µM
- Average of HCR (SD) (NCI-H1650; HCR=IC50 normoxia/IC50 anoxia): 28.2 (5.4)
- IC50 (NCI-H1650; [1]): 45.1 µM
- IC50 (NCI-H1650; [2]): 1250 µM
- Average of HCR (SD) (NCI-H1975; HCR=IC50 normoxia/IC50 anoxia): 52.6 (36.4)
- IC50 (NCI-H1975; [1]): 28.7 µM
- IC50 (NCI-H1975; [2]): 1140 µM
- Average of HCR (SD) (PANC-1; HCR=IC50 normoxia/IC50 anoxia): 24.0 (1.0)
- IC50 (PANC-1; [1]): 43.6 µM
- IC50 (PANC-1; [2]): 1040 µM
